{"source": "paper PMC8973439", "about": "“From Fish Scale Gelatin to Tyrosinase Inhibitor: A Novel Peptides Screening Approach Application” (Frontiers in Nutrition, 2022)", "key": {"Mushroom tyrosinase": {"molecular_target": "Mushroom tyrosinase (Agaricus bisporus, UniProt C7FF04)", "sequence (C7FF04 1-392)": "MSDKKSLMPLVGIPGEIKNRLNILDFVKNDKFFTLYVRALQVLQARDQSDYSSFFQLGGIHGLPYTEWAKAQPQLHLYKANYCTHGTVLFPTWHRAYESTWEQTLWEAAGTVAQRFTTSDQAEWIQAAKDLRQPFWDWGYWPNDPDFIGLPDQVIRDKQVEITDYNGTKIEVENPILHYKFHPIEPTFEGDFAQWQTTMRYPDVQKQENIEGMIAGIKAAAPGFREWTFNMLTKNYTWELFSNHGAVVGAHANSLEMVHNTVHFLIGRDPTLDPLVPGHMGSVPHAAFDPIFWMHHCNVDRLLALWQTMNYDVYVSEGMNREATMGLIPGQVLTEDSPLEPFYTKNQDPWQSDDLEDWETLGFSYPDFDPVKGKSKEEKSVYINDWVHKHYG", "assay": "Tyrosinase inhibitory activity (L-DOPA oxidation, 475 nm)", "assay_type": "biochemical", "description": "The determination of the tyrosinase inhibitory activity was made according to Uysal et al. ([26]). Sample solutions (50 μl) with the appropriate concentration were reacted with 50 μl of 200 mM pH 6.8 phosphate buffer saline (PBS) solution and 50 μl of tyrosinase at room temperature for 15 mins. Then, 50 μl of 2.5 mM L-DOPA was added, and allowed to react at 30°C for 10 min. The absorbance (As) at 475 nm was finally measured with a microplate reader (Synergy H1, BioTek Co., Ltd., USA). Taking the reaction system without enzyme and sample as a blank.\n4 ml of hydrolysis product (5 mg/ml) and 2 ml of mushroom tyrosinase (10 U/ml) were incubated for 1 h at 37°C. Inactivated mushroom tyrosinase (heated in a boiling water bath for 10 mins) was also prepared as a blank group."}, "[1]": {"system": "tyrosinase in B16F10 cells", "assay": "Tyrosinase activity in B16F10 melanoma cells", "assay_type": "cell-based, murine", "settings": "positive control, 0.75 mg/ml, 24 h; lysate with 10 mM L-DOPA, 30 min 37°C, 450 nm", "quoted_text": "The tyrosinase inhibition was determined according to the method of Ullah et al. ([31]). B16F10 cells were seeded into 96-well plates at a rate of 5 × 10^4 cells per well and incubated at 37°C in a humid atmosphere of 5% CO2 for 24 h. […] (0, 0.1, 0.2, 0.4, 0.8 and 1.6 mg/ml), and re-incubated for 24 h under the same conditions. The cells were then washed with PBS buffer, lysed with lysate buffer [100 μl containing 50 mM PBS, 0.1 mM phenylmethanesulfonyl fluoride (5 μl) and Triton X-100 (5 μl)], and frozen at −80°C for 30 min. The cell lysate was then centrifuged at 12,000 rpm at 4°C for 30 min and transferred to a 96-well plate with a total volume of 100 μl (80 μl lysate supernatant and 20 μl 10 mM L-DOPA) and incubated for 30 min at 37°C. The absorbance was measured at 450 nm using an enzyme-linked immunosorbent assay (ELISA) reader."}, "[2]": {"system": "B16F10 melanoma cells (melanin content)", "assay": "Melanin content in B16F10 melanoma cells", "assay_type": "cell-based, murine", "settings": "positive control, 0.75 mg/ml; NaOH/10% DMSO lysis, 405 nm", "description": "(§1) B16F10 cells were kept in Dulbecco's modified eagle medium supplemented with 10% heat-inactivated fetal bovine serum, and cells were cultured at 37°C in an atmosphere with 5% CO2. These cells were then used for cell viability, tyrosinase inhibition and melanin content determination.\nAfter cultivated according to the instructions above, the cells were digested with 0.25% trypsin when reached to 80–90% confluence to make a single cell suspension. Fresh culture medium was used to adjust the cell concentration to 1 × 10^6 cells/ml, 2 ml of which was inoculated in a 6-well culture plate for incubation overnight. When the cells adhered, the supernatant was discarded and the cells were rinsed with PBS once. 2 ml fresh culture medium was added again for incubation under CO2 for 48 h. The supernatant was discarded after the incubation, and the adhered cells were rinsed with PBS and then dispersed with trypsin. The dispersed cells were collected and centrifuged at 1,500 r/min for 10 min. […] Measured the optical density value of each well at 405 nm with a microplate reader, and calculated the melanin content ([32]). (3) Melanin content/%=(As-Ab)/(Ac-Ab)×100% where, As is the absorbance of experimental wells; Ac is the absorbance of control well; Ab is the absorbance of blank wells."}, "B16F10 melanoma cells": {"system": "B16F10 melanoma cells", "assay": "Cell viability of B16F10 melanoma cells (CCK-8)", "assay_type": "cell-based, murine", "settings": "24 h", "description": "as §1\nThe previously described cell counting kit-8 (CCK-8) assay was used to assess cell viability ([30]). The cells were incubated in a 96-well plate with 5 × 10^4 cells per well in a 5% humid CO2 atmosphere at 37°C for 24 h. […] The cells were re-incubated for 24 h under the same conditions. The cells were then treated with the CCK-8 reagent and incubated at 37°C for 1 h. Cell viability is calculated by reading the absorbance value at 450 nm. The calculation formula is shown below. (2) Cell viability/%=(As-Ab)/(Ac-Ab)×100% where, As is the absorbance of experimental wells (medium containing cells, CCK-8, sample to be tested); Ac is the absorbance of control well (medium containing cells, CCK-8, no sample to be tested); Ab is the absorbance of blank wells (medium without cells and samples to be tested, CCK-8)."}, "tyrosinase": {"molecular_target": "tyrosinase", "settings": "cited from earlier work", "description": "Studies have shown that peptides with lower MW tend to have higher functional activity ([38]). Therefore, peptides with MW ≤ 1,000 Da were selected from the 52 peptides obtained, and 16 peptides (shown in Table 3) were obtained for subsequent analysis. Section Amino Acid Composition and Molecular Weight Distribution of Hydrolysates introduced some amino acids that contribute to tyrosinase inhibition, such as Val, Ala, Leu, Ile, Arg, Phe, Cys, Ser, and Thr. According to the screening method from previous study ([10]), 16 peptides in Table 3 were counted for their tyrosinase inhibitory contribut ..."}, "[3]": {"settings": "synthetic peptides (purity more than 95%), mushroom tyrosinase, 2.5 mM L-DOPA, 200 mM pH 6.8 PBS, preincubation 15 min room temperature, 10 min 30°C, 475 nm, three parallel tests, read-out: IC50 (tyrosinase inhibition)"}}, "note": "Like-named read-outs stand apart in the source and are kept apart here. Where a SMILES comes first, the peptide text is derived from it.", "data": [{"compound": "CC(C)C[C@H](NC(=O)[C@H](CC(=O)O)NC(=O)[C@@H](N)Cc1ccccc1)C(=O)NCC(=O)N[C@@H](Cc1ccccc1)C(=O)N[C@@H](CC(C)C)C(=O)N[C@@H](C)C(=O)N[C@@H](CCCNC(=N)N)C(=O)O", "note": "(H-FDLGFLAR-OH)", "values": [{"measurement": "IC50", "setting": "Mushroom tyrosinase; [3]", "value": 4, "unit": "mM"}]}, {"compound": "O=c1cc(CO)occ1O", "note": "[kojic acid]", "values": [{"measurement": "Tyrosinase inhibition rate in B16F10 cells", "setting": "[1]", "value": 28.34, "unit": "%"}, {"measurement": "Reduction of melanin content", "setting": "[2]", "value": 55.4, "unit": "%"}]}, {"compound": "CC(C)C[C@H](NC(=O)[C@H](Cc1ccccc1)NC(=O)CNC(=O)[C@H](CC(C)C)NC(=O)[C@@H](N)CC(=O)O)C(=O)N[C@@H](C)C(=O)N[C@@H](CCCNC(=N)N)C(=O)NCC(=O)N[C@@H](Cc1ccccc1)C(=O)O", "note": "(H-DLGFLARGF-OH)", "values": [{"measurement": "IC50", "setting": "Mushroom tyrosinase", "value": 3.09, "unit": "mM"}, {"measurement": "Cell viability, concentration dependence", "setting": "B16F10 melanoma cells; 0–1.6 mg/ml, CCK-8", "value": "cell survival rate gradually decreased"}, {"measurement": "Cell viability", "setting": "B16F10 melanoma cells; tested concentration range 0–1.6 mg/ml, CCK-8, 450 nm", "value": "> 50", "unit": "%"}]}, {"compound": "Phe-Pro-Tyr [FPY, from defatted walnut (Juglans regia L.) meal hydrolysate]", "values": [{"measurement": "IC50", "setting": "tyrosinase; from defatted walnut (Juglans regia L.) meal hydrolysate, read-out: IC50 (tyrosinase inhibition)", "value": "3.22 ± 0.22", "unit": "mM"}]}, {"compound": "RHAKF [from Chinese quince seed protein hydrolysate]", "values": [{"measurement": "IC50 (tyrosinase inhibition)", "setting": "tyrosinase; from Chinese quince seed protein hydrolysate", "value": 1150, "unit": "µg/mL"}]}, {"compound": "CC(C)[C@H](NC(=O)[C@H](CCC(=O)O)NC(=O)[C@H](CO)NC(=O)[C@@H](N)Cc1c[nH]c2ccccc12)C(=O)N[C@@H](Cc1ccccc1)C(=O)O", "note": "[WSEVF] (H-WSEVF-OH)", "values": [{"measurement": "IC50", "setting": "Mushroom tyrosinase; [3]", "value": 5.81, "unit": "mM"}]}, {"compound": "CC(C)C[C@H](NC(=O)[C@@H](NC(=O)[C@H](CC(C)C)NC(=O)[C@H](CCC(N)=O)NC(=O)[C@@H](N)Cc1c[nH]c2ccccc12)[C@@H](C)O)C(=O)O", "note": "[WQLTL] (H-WQLTL-OH)", "values": [{"measurement": "IC50", "setting": "Mushroom tyrosinase; [3]", "value": 3.86, "unit": "mM"}]}]}
